Laboratory results published in US20220125877A1, “METHOD FOR TREATING COLORECTAL CANCER” (SUN YAT-SEN UNIVERSITY, priority 2019, published 2022).

What was measured:
[1] = tested on: KRAS mutation CRC cells LoVo; experiment: Plate clone formation; type: cell-based, human; details: FIGS. 8A-B
Procedure: (§1) 1) Cell inoculation: the culture solution was absorbed and discarded to collect the cells, then the cells were suspended in a treatment condition culture solution, and counted for 3 times to obtain a mean value, then the concentration of a cell suspension was adjusted to 1×10^3/ml. 2.5 ml treatment condition culture solution was respectively added to per well of a 6-well culture plate; 0.5 ml cell suspension (namely, 500 cells per well) was added per well with a final volume of 3 ml. Note that the culture plate was shaken repeatedly according to a cross-shaped direction during inoculation, such that the cells were distributed evenly as much as possible.
(§2) 3) Clone staining: the culture was stopped when the cells formed visible clones (the number of cloned cells per well was about 50-150) by the naked eyes. The culture medium was discarded, and the clones were soaked and washed for twice with PBS carefully, 1.5 ml 4% paraformaldehyde was respectively added per well for immobilization for 15 min; then the immobilization solution was discarded, and the clones were cleaned with running water slowly; 1.5 ml crystal violet working solution was added per well, standing at room temperature, and the clones were stained for 30 min, and the staining solution was cleaned with running water slowly, then the remaining clones were dried in a draught cupboard. […]

[2] = tested on: KRAS wildtype CRC cells SW48; experiment: Plate clone formation; type: cell-based, human; details: FIGS. 8A-B
Procedure: as §1, §2

[3] = tested on: ERK, RB, MPK, AKT, mTOR and 4E-BP1 phosphorylation in LoVo; experiment: Western blot of MEK/ERK/cyclin D1/RB and PI3K/AKT/mTOR/4E-BP1 signaling; type: cell-based, human; details: 24 h, FIGS. 9A-C
Procedure: (§3) Western blot was used to detect the change of metformin on the related molecules of sroliferative signaling pathways MEK/ERK/cyclin D1/RB and PI3K/AKT/mTOR/4E-BP1, which clarifies the mechanism of metformin in inhibiting the proliferation of KRAS mutation CRC cells.
(§4) 1) Cells were inoculated on a culture dish and cultured to 60% of fusion degree, and treated with the addition of an agent for 24 h.
(§5) 2) Protein was collected, and washed with PBS for 3 times, then added with 100 μl 1 RSDS buffer solution (100 mmol/1 Tris-Cl pH6.8, 2% SDS, 10% glycerinum), and at this time, the cell lysis solution was sticky.
(§6) 3) The cell lysis solution was collected into a 0.5 ml centrifugal tube with a scraper, and cooked for 30 min at 100° C.
(§7) 4) The total protein extractive in the cells was subjected to protein quantification according to a BCA kit process (BIO-RAD company).
(§8) 5) The sample was treated according to a ratio of 9 μl denatured protein sample: 1 μl denatured buffer solution (β-mercaptoethanol (BME), 0.4% Bromphenol Blue), and boiled for 30 min at 100° C. for further use.
(§9) 6) A prepared SDS-PAGE gel (10% separation gel and 5% stacking gel) was taken; samples were added with 40 ug/well, and subjected gel electrophoresis for 30 min at 80V, and gel electrophoresis for 90 min at 120V. […]

[4] = tested on: ERK, RB, MPK, AKT, mTOR and 4E-BP1 phosphorylation in SW48; experiment: as above; type: cell-based, human; details: 24 h, FIGS. 9A-C
Procedure: as §3, §4, §5, §6, §7, §8, §9

[5] = tested on: LoVo cell line with knock-down KRAS, TET1/2 interfered; experiment: Proliferation with TET1/2 interfered; type: cell-based, human; details: MATE1 down-regulated once again, FIG. 16G
SW48 CDX = experiment: Cell-derived xenograft (CDX), tumor growth; type: in vivo, BALB/c nude mice; details: 200 mg/kg in water, 30 d, vs control group, FIGS. 12G-L
Procedure: The tumor inhibition effect of MATE1 with metformin was verified by a cell-derived xenograft transplantation model (CDX) experiment.
In the CDX, CRISPR/Cas9 was first utilized to build a KRAS^G13DSW48 cell line; MATE1 was knocked down by shRNA lentivirus transduction in SW48 to build a sh-MATE1-SW48 cell line; lentivirus was infected in KRAS^G13DSW48 cells to over-express MATE1. 1×10^6 cells were suspended in a basement membrane matrix (100 μl basement membrane matrix and 100 μl PBS) and subcutaneously injected into BALB/c nude mice. CDX mice were randomly distributed into a metformin treatment group and a control group. 200 mg/kg (equivalent to human 1000 mg) metformin was dissolved into water, and respectively taken by the 4 groups of animals; then the tumor size was measured; 30 d later, the tumor tissues were killed and weighed.

For `CN(C)C(=N)N=C(N)N` [metformin], the clone formation [1] was “inhibits the clone formation”, the clone formation [2] was “no obvious effect” and the “phosphorylation levels in ERK, RB, MPK, AKT, mTOR and 4E-BP1” value [3] was “inhibited phosphorylation levels”. For the same compound, the “phosphorylation levels in ERK, RB, MPK, AKT, mTOR and 4E-BP1” value [4] was “no obvious change”, the “inhibiting effect on proliferation of tumor cells with TET1/2 interfered” value [5] was “accelerating the inhibiting effect” and the “anti-tumor effect (tumor growth)” value (SW48 CDX) was “no obvious anti-tumor effect”.
